Read-outs that look alike come from different tables or passages of the source.
Key:
[1] = Emetic activity in dogs (intravenous); conditions: dog, in vivo, male beagle dogs, i.v., observed for 1 hour after treatment, read-out: ≅ED50, emetic activity in dogs
From the text: The emetic activity of some of the compounds was investigated by intravenous administration to male beagle dogs weighing 15-20 kg. […] Five to six animals per dose were employed for the ED50 evaluation.

[2] = test system: nidation; assay: Nidation inhibition test in rats (anti-prolactin activity; absence of implantation sites); type: in vivo, rat (Sprague-Dowley); conditions: Rattus norvegicus
From the text: Prolactin is considered to be the only hypophysial hormone involved in the maintenance of the first part of pregnancy in rats.
For the assessment of the anti-prolactin activity, the nidation inhibition test (M.C. Shelesnyak, Amer. J. Physiol., 180, 47, 1955) in rats was employed. For the ergoline derivatives this test is considered to be correlated with prolactin-inhibiting ability (K. Rezabek et al., J. Pharm. Sci., 64, 1045, 1976).
Adult female rats, of the Sprague-Dowley strain, in proestrus were mated with fertile males and their vaginal smears were examined the next morning. The presence of spermatozoa was considered evidence of impregnation and onset of pregnancy (day 1).
The compounds to be tested were administered orally or subcutaneously to groups of from six to eight rats on day 3. On day 14, the animals were sacrificed and the uterus was examined for the presence of implantation sites. The absence of implantation sites was taken as the criterion of anti-prolactin activity.
Several doses were tested for the ED50 evaluation.
As the reference standard Bromocriptine was used, this being well known both for its anti-nidation (E. Fluckiger and H. R. Wagner, Experientia, 24, 1130, 1968) and its anti-prolactin activity (C. L. Brooks and C. W. Welsch, Proc. Soc. Exp. Bio. Med., 146, 863, 1974).

[3] = sc, rats, s.c., dosed on day 3, uterus examined on day 14, read-out: ≅ED50, nidation inhibition in rats (subcutaneous treatment)
[4] = rats, os (oral), dosed on day 3, uterus examined on day 14, read-out: ≅ED50, nidation inhibition in rats (oral treatment)

Structure (SMILES) | TD50 at 1 h [1] [mg/kg] | ED50 ([2]; po, read-out: ≅ED50, nidation inhibition in rats (oral treatment)) [mg/kg] | ED50 ([2]; sc, read-out: ≅ED50, nidation inhibition in rats (subcutaneous treatment)) [mg/kg] | ED50 [2, 3] [mg/kg] | ED50 [2, 4] [mg/kg]
CC(C)C[C@H]1C(=O)N2CCC[C@H]2[C@]2(O)O[C@](NC(=O)[C@@H]3C=C4c5cccc6[nH]c(Br)c(c56)C[C@H]4N(C)C3)(C(C)C)C(=O)N12 [Bromocriptine, reference compound] | ~0.007 | ~8 | ~1 |  | 
CN1CC(C(=O)CN2CCCCC2)C[C@@H]2c3cccc4[nH]cc(c34)C[C@H]21 (stereo partly shown) [Compound 611, 6-Methyl-8-piperidinoacetylergoline] |  |  |  | ~1 | ~0.5
CN1CC(C(=O)COC(=O)c2cncc(Br)c2)C[C@@H]2c3cccc4[nH]cc(c34)C[C@H]21 (stereo partly shown) [Compound 613, 6-Methyl-8-(5'-bromonicotinoyloxyacetyl)ergoline] | ~0.045 |  |  | ~0.5 | ~0.5
CN1CC(C(=O)CO)C[C@@H]2c3cccc4[nH]cc(c34)C[C@H]21 (stereo partly shown) [Compound 615, 6-Methyl-8-hydroxyacetylergoline] | ~0.025 |  |  | ~0.5 | ~0.5
CN1CC(C(=O)COC(=O)c2ccncc2)C[C@@H]2c3cccc4[nH]cc(c34)C[C@H]21 (stereo partly shown) [Compound 991, 8-Isonicotinoyloxyacetyl-6-methylergoline] |  |  |  | ~2 | ~2
CCCCCC(=O)OCC(=O)C1C[C@@H]2c3cccc4[nH]cc(c34)C[C@H]2N(C)C1 (stereo partly shown) [Compound 992, 8-Caproyloxyacetyl-6-methylergoline] |  |  |  | ~1 | ~0.5
CN1CC(C(=O)COC(=O)c2ccccc2)C[C@@H]2c3cccc4[nH]cc(c34)C[C@H]21 (stereo partly shown) [Compound 1000, 8-Benzoyloxyacetyl-6-methylergoline] |  |  |  | ~1 | ~0.5
CN1CC(C(=O)COC(=O)C(C)(C)C)C[C@@H]2c3cccc4[nH]cc(c34)C[C@H]21 (stereo partly shown) [Compound 1011, 8-Pivaloyloxyacetyl-6-methylergoline] |  |  |  | ~1 | ~0.5
CN1CC(C(=O)COC(=O)c2cccnc2)C[C@@H]2c3cccc4[nH]cc(c34)C[C@H]21 (stereo partly shown) [Compound 1012, 8-Nicotinoyloxyacetyl-6-methylergoline] |  |  |  | ~1 | ~1
COc1cccc(OC)c1C(=O)OCC(=O)C1C[C@@H]2c3cccc4[nH]cc(c34)C[C@H]2N(C)C1 (stereo partly shown) [Compound 1013, 8-(2',6'-dimethoxybenzoyloxyacetyl)-6-methylergoline] |  |  |  | ~1 | ~0.5
CN1CCN(CC(=O)C2C[C@@H]3c4cccc5[nH]cc(c45)C[C@H]3N(C)C2)CC1 (stereo partly shown) [Compound 1014, 6-Methyl-8-(4'-methylpiperazino)acetylergoline] |  |  |  | ~1 | ~1

From patent US4196288A, “Ergoline derivatives and a process for their preparation” (Societa Farmaceutici Italia S.p.A., priority 1976, dated 1980)
